The IC50 is the midpoint of a concentration-inhibition curve.

The target in data set [1] is human muscarinic acetylcholine M3 receptor (M3-ACh) (Homo sapiens, UniProt P20309). Nature of the data set: biochemical. The format is binding.
Data set [2] can be described thus: Measurement of plasma protein binding by equilibrium dialysis. As to conditions: 37° C., 5 μM compound.

Structures are written as SMILES.

human muscarinic acetylcholine M3 receptor (M3-ACh), sequence (P20309 whole entry): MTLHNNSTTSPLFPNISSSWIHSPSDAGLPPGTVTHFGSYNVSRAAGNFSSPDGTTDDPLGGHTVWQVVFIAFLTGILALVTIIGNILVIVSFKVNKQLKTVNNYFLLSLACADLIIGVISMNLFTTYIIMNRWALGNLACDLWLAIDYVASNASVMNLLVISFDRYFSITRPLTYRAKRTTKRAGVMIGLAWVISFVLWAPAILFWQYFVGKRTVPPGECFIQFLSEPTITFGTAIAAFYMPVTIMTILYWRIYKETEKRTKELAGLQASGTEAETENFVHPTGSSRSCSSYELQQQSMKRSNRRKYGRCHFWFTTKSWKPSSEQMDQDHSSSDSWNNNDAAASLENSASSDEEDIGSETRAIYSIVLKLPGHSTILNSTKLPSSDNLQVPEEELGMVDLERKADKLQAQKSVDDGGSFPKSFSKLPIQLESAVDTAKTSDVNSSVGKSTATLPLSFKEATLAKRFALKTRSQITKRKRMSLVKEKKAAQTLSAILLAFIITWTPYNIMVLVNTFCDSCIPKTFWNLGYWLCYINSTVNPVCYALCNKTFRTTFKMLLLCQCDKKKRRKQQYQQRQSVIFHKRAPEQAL

As to `O=C(C[N+]12CCC(CC1)[C@@H](OC(=O)C1(c3ccccc3)CCCCCC1)C2)Nc1cnccn1.[Br-]` [Example 16, (3R)-1-[2-Oxo-2-(pyrazin-2-ylamino)ethyl]-3-{[(1-phenylcycloheptyl)carbonyl]oxy}-1-azoniabicyclo[2.2.2]octane Bromide], the IC50 in data set [1] (M3 binding IC50) is < 2 nM. Also, the “human plasma protein binding” value in data set [2] was 94 % bound.

For `O=C(O[C@H]1C[N+]2(CCc3cccc(C(F)(F)F)c3)CCC1CC2)C1(c2ccccc2)CCCCCC1` [Example 27, (3R)-3-{[(1-Phenylcycloheptyl)carbonyl]oxy}-1-{2-[3-(trifluoromethyl)phenyl]ethyl}-1-azoniabicyclo[2.2.2]octane Bromide], the IC50 in data set [1] (M3 binding IC50) was < 2 nM.

Turning to `O=C(C[N+]12CCC(CC1)[C@@H](OC(=O)C1(c3ccccc3)CCCCCC1)C2)Nc1cccnn1` [Example 17, (3R)-1-[2-Oxo-2-(pyridazin-3-ylamino)ethyl]-3-{[(1-phenylcycloheptyl)carbonyl]oxy}-1-azoniabicyclo[2.2.2]octane Bromide], the IC50 in data set [1] (M3 binding IC50) is < 2 nM.

For `O=C(O[C@H]1C[N+]2(Cc3ccc(C(F)(F)F)o3)CCC1CC2)C1(c2ccccc2)CCCCCC1` [Example 9, (3R)-3-{[(1-Phenylcycloheptyl)carbonyl]oxy}-1-{[5-(trifluoromethyl)-2-furyl]methyl}-1-azoniabicyclo[2.2.2]octane Bromide], the IC50 in data set [1] (M3 binding IC50) is > 10 nM.

In the case of `O=C1c2ccccc2C(=O)N1CC[N+]12CCC(CC1)[C@@H](OC(=O)C1(c3ccccc3)CCCCCC1)C2` [Example 30, (3R)-1-[2-(1,3-Dioxo-1,3-dihydro-2H-isoindol-2-yl)ethyl]-3-{[(1-phenylcycloheptyl)carbonyl]oxy}-1-azoniabicyclo[2.2.2]octane Bromide], the IC50 in data set [1] (M3 binding IC50) was > 10 nM.

With `O=C(O)C[N+]12CCC(CC1)[C@@H](OC(=O)C1(c3ccccc3)CCCCCC1)C2` [Example 34, (3R)-1-(Carboxymethyl)-3-{[(1-phenylcycloheptyl)carbonyl]oxy}-1-azoniabicyclo[2.2.2]octane Bromide], the IC50 in data set [1] (M3 binding IC50) is > 10 nM.

Take `O=C(C[N+]12CCC(CC1)[C@@H](OC(=O)C1(c3ccccc3)CCCCCC1)C2)N1CCOCC1` [Example 15, (3R)-1-(2-Morpholin-4-yl-2-oxoethyl)-3-{[(1-phenylcycloheptyl)carbonyl]oxy}-1-azoniabicyclo[2.2.2]octane Bromide]: the IC50 in data set [1] (M3 binding IC50) was 2 to 10 nM.

For `C[N+]12CCC(CC1)[C@@H](OC(=O)C1(c3ccccc3)CCCC1)C2` [Comparative Example 2, (3R)-1-Methyl-3-{[(1-phenylcyclopentyl)carbonyl]oxy}-1-azoniabicyclo[2.2.2]octane Iodide, reference compound], in data set [1] (pIC50 of comparative compounds containing a cyclopentyl (C5) ring in place of cycloheptyl (C7)), the IC50 was 39.8 nM. In other words, the double-digit nanomolar range.

Turning to `O=C(O[C@H]1C[N+]2(CCc3ccc4ccccc4c3)CCC1CC2)C1(c2ccccc2)CCCCCC1` [Example 23, (3R)-1-[2-(2-Naphthyl)ethyl]-3-{[(1-phenylcycloheptyl)carbonyl]oxy}-1-azoniabicyclo[2.2.2]octane Bromide], in data set [1] (M3 binding IC50), the IC50 is < 2 nM.

In turn, `O=C(O[C@H]1C[N+]2(CC3(c4ccc(Cl)cc4)CC3)CCC1CC2)C1(c2ccccc2)CCCCCC1` [Example 32, (3R^5)-1-{[1-(4-Chlorophenyl)cyclopropyl]methyl}-3-{[(1-phenylcycloheptyl)carbonyl]oxy}-1-azoniabicyclo[2.2.2]octane Bromide] returned a half-maximal inhibitory concentration (IC50) in data set [1] (M3 binding IC50) of 2 to 10 nM.

Turning to `N#Cc1ccc(CC[N+]23CCC(CC2)[C@@H](OC(=O)C2(c4ccccc4)CCCCCC2)C3)cc1` [Example 29, (3R)-1-[2-(4-Cyanophenyl)ethyl]-3-{[(1-phenylcycloheptyl)carbonyl]oxy}-1-azoniabicyclo[2.2.2]octane Bromide], the concentration for half-maximal inhibition (IC50) in data set [1] (M3 binding IC50) was in the range of 2 to 10 nM.

As to `O=C(O[C@H]1C[N+]2(CCOCc3ccccc3)CCC1CC2)C1(c2ccccc2)CCCCCC1` [Example 12, (3R)-1-[2-(Benzyloxy)ethyl]-3-{[(1-phenylcycloheptyl)carbonyl]oxy}-1-azoniabicyclo[2.2.2]octane Bromide], the IC50 in data set [1] (M3 binding IC50) was < 2 nM.

On to `O=C(O[C@H]1C[N+]2(Cc3ccc(F)c(F)c3)CCC1CC2)C1(c2ccccc2)CCCCCC1` [Example 8, (3R)-1-(3,4-Difluorobenzyl)-3-{[(1-phenylcycloheptyl)carbonyl]oxy}-1-azoniabicyclo[2.2.2]octane Bromide], for which, in data set [1] (M3 binding IC50), the IC50 is > 10 nM.

In the case of `O=C(O[C@H]1C[N+]2(Cc3ccc(F)cc3)CCC1CC2)C1(c2ccccc2)CCCCCC1` [Example 5, (3R)-1-(4-Fluorobenzyl)-3-{[(1-phenylcycloheptyl)carbonyl]oxy}-1-azoniabicyclo[2.2.2]octane Bromide], the IC50 in data set [1] (M3 binding IC50) is > 10 nM.
